Experimental data taken from patent US20230339919A1, “BENZO OXYGEN-CONTAINING HETEROCYCLIC COMPOUNDS AND MEDICAL APPLICATION THEREOF” (AB PHARMA LTD., priority 2020, published 2023).
Like-named read-outs stand apart in the source and are kept apart here.

Tests used:
[1] = target: T1, GPR40 (Homo sapiens, UniProt O14842); experiment: GPR40 agonist activity, FLIPR calcium assay in CHO-K1/GPR40 cells; format: cell-based
T1 construct: expressed in transfected cells; host or cells: CHO-K1
Protocol: Inoculate CHO-K1/GPR40 cells in 384-well plates at a density of 10,000 cells/well. Cells were incubated at 37° C. for 24 hours in a 5% CO2 incubator. After the experiment, discard the cell culture medium, quickly add […] of 1× FLIPR® Calcium 6 dye containing 2.5 mM/Probenecid to each well and incubate at 37° C. for 2 hours protected from light. For the determination, different concentrations of drug ([…]) were added to the wells and the fluorescence values were read. The fluorescence excitation wavelength was 494 nm and emission wavelength was 516 nm. FLIPR instrument data, EC50 was derived from the formula Y=Bottom+(Top−Bottom)/(1+(EC50/X)^HillSlope).

[2] = Ames assay
[3] = target: hERG (Homo sapiens, UniProt Q12809); experiment: hERG assay
Sequence of hERG (Q12809 whole entry): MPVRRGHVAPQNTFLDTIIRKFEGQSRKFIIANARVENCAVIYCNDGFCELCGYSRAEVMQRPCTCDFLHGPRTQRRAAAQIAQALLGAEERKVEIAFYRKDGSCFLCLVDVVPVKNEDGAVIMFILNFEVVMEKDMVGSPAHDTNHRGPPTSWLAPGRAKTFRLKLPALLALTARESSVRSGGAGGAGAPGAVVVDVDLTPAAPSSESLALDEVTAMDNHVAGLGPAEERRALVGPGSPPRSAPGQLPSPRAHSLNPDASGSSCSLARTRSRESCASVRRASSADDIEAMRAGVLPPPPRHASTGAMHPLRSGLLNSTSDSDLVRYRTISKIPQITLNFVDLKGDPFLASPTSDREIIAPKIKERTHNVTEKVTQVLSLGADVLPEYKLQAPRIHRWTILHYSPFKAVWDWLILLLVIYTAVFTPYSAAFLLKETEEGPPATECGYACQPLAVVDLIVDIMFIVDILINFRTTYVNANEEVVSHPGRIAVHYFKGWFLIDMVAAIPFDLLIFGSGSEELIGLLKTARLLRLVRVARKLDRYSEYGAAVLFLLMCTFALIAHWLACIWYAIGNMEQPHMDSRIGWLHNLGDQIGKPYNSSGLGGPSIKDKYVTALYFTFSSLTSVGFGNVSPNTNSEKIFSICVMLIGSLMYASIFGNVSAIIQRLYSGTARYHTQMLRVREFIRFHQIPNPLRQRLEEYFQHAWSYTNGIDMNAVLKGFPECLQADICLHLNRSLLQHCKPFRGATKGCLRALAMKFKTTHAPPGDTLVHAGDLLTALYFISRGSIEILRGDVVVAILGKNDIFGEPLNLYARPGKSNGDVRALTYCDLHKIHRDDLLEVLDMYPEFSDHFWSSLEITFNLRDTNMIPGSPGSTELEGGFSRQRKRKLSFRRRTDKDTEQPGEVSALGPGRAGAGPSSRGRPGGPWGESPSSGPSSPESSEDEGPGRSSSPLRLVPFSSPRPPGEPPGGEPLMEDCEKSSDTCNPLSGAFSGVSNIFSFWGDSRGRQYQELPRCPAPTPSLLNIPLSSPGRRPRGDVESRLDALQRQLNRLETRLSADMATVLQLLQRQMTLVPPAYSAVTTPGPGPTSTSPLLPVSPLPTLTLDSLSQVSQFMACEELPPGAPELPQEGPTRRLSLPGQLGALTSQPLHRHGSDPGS

[4] = Acute Toxicity Study (MTD) by gavage in healthy mice; format: in vivo; settings: mouse, in vivo, po, 600 mg/kg
[5] = system: healthy mice; experiment: as above; format: in vivo; settings: mouse, in vivo, 600 mg/kg, 5 days
[6] = target: BSEP bile salt transporter (Homo sapiens, UniProt O95342); experiment: BSEP (Bile Salt Export Pump) assay, taurocholic acid uptake by BSEP vesicles, LC/MS/MS; format: in vitro ADME
Sequence of BSEP bile salt transporter (O95342 whole entry): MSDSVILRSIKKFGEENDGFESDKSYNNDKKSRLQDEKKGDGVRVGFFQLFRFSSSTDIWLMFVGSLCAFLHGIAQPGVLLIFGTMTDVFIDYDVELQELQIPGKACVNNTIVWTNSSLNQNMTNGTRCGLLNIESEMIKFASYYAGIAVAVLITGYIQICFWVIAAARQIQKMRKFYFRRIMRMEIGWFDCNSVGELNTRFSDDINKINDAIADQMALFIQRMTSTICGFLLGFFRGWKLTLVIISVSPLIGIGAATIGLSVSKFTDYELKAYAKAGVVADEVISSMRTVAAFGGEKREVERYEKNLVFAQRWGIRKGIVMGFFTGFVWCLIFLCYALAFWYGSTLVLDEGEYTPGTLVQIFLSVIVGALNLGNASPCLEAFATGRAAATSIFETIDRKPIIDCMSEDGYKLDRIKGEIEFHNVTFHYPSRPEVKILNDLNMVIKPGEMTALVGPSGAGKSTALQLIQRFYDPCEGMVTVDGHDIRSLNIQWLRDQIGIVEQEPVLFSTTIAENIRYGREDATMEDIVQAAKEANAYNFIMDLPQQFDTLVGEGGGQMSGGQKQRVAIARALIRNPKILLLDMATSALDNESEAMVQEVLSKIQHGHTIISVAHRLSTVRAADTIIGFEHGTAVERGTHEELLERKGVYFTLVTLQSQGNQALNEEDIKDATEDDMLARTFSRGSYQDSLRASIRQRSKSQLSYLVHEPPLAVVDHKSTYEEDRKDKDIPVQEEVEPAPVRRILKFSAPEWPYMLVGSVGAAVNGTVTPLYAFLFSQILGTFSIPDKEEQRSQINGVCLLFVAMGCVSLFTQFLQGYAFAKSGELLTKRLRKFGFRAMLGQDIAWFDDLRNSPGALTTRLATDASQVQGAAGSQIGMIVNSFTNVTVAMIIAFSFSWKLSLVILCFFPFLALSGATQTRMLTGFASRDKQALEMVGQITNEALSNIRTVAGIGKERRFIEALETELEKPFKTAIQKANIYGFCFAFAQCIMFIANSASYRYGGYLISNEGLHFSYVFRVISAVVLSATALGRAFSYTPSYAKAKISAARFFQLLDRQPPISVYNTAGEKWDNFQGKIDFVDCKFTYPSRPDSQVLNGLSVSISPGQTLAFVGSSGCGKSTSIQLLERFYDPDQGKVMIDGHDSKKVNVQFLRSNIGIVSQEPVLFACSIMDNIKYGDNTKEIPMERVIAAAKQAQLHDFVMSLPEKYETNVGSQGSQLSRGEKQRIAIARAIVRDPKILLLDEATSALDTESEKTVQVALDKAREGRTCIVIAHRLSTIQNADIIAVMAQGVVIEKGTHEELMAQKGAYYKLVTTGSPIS
Source text: In this experiment, we performed a preliminary study on the inhibition of the uptake of the substrate taurocholic acid (TCA) by the BSEP bile salt transporter by LC/MS/MS. The BSEP protein microvesicles with reverse uptake ability were obtained by transfecting Hi5 cells with the BSEP gene, which is capable of TCA uptake and uptake of taurocholic acid. The principle of this experiment is to perform substrate uptake by BSEP protein microcapsules in the presence of energy ATP, the substrate TCA and the candidate compound to be tested, after a certain transit time, the energy, substrate and candidate compound were completely washed out of the microvesicle, and the absorbed substrate TCA was released by lysis of the microvesicle. […] The starting concentration of the sample was 100 mM, diluted in 2-fold gradient with Bravo apparatus, with 11 concentration gradients; the lowest point concentration was 97.65 μM. • 3. Control compound (Glyburide) starting at 20 mM, diluted in 2-fold gradient with Bravo instrument, with 11 concentration gradients; the lowest point concentration was 19.53 μM. • 4. 300 nl of compound was transferred to the middle plate using the ECHO autosampler. • 5. Positive control (HPE) wells and negative control (ZPE) wells were also transferred 300 nl DMSO each. […] Add 14.7 μl of ATP buffer to the corresponding wells of the compound and ZPE, respectively. • 2. Add 14.7 μl of AMP buffer to the corresponding wells of the HPE. • 3. Shake the plate at 25 degrees C. for 10 minutes. • 4. […] Immediately add 5 ul of 0.5M EDTA solution to all wells, and then add 65 μl of Buffer B. All reactions are completed. • 6. Transfer […] of liquid from the end of reaction compound plate to the filter plate using the spiking apparatus. • 7. After placing the liquid receiving plate under the filter plate, use a centrifuge to remove the liquid and discard the liquid received in the receiving plate. • 8. Add 90 μl of buffer B to the filter plate and repeat step 7. Repeat steps 7 and 8 to wash the filter plate a total of three times. • 9. Let the filter plate dry overnight. • 10. Add 81 μl of 80% methanol/water solution to the filter plate the next day. • 11. Apply membrane to the filter plate and vibrate the plate for 15 minutes. • 12. Place a new liquid receiver plate under the filter plate and centrifuge for 5 min to filter all the liquid from the filter plate into the receiver plate. • 13. Add 13.5 μl of internal standard solution to each well of the liquid receiver plate and seal the plate with a sealing film. • 14. Using LC/MS/MS, detect the content of taurocholic acid in the receiver plate.

[7] = GPR40 agonist activity range (EC50), CHO-K1/GPR40 cells, read-out: GPR40 activity
[8] = Table 4, read-out: GPR40 Activity (hEC50)
[9] = read-out: GPR40 activity (EC50)
[10] = inhibition of TCA uptake by BSEP vesicles, read-out: Potential inhibitory side effects BSEP (IC50)

T1 sequence (O14842 whole entry): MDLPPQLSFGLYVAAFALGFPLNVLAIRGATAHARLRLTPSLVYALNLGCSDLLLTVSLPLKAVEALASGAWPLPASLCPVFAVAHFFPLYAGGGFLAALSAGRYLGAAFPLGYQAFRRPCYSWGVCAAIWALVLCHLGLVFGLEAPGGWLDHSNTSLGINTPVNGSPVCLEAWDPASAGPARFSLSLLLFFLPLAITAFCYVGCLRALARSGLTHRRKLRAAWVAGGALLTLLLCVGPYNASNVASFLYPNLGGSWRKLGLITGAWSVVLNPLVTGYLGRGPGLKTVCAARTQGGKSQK

Row | SMILES | EC50 [1, 7] [nM] | also measured
1 | O=C(O)CC1COc2cc(OCc3cccc4c3OCO4)ccc21 (stereo not shown) [IIb-01] | > 100 | –
2 | O=C(O)CC1COc2cc(OCc3cc(Br)cc4c3OCO4)ccc21 (stereo not shown) [IIb-02] | > 100 | –
3 | O=C(O)CC1COc2cc(OCc3c(Br)ccc4c3OCO4)ccc21 (stereo not shown) [IIb-03] | > 100 | –
4 | O=C(O)CC1COc2cc(OCc3ccc4c(c3)OCO4)ccc21 (stereo not shown) [IIb-04] | 10 to 100 | –
5 | O=C(O)CC1COc2cc(OCc3cc(Cl)cc4c3OCO4)ccc21 (stereo not shown) [IIb-05] | 10 to 100 | –
6 | O=C(O)CC1COc2cc(OCc3cc(F)cc4c3OCO4)ccc21 (stereo not shown) [IIb-06] | 10 to 100 | –
7 | O=C(O)C[C@@H]1COc2cc(OCc3cc(F)cc4c3OCO4)ccc21 [IIb-07] | 10 to 100 | –
8 | O=C(O)CC1COc2cc(OCc3c(Br)ccc4c3OCCO4)ccc21 (stereo not shown) [IIb-08] | > 100 | –
9 | O=C(O)CC1COc2cc(OCc3cc(Br)cc4c3OCCO4)ccc21 (stereo not shown) [IIb-09] | > 100 | –
10 | O=C(O)CC1COc2cc(OCc3cc(Cl)cc4c3OCCO4)ccc21 (stereo not shown) [IIb-10] | > 100 | –
11 | O=C(O)CC1COc2cc(OCc3cc(F)cc4c3OCCO4)ccc21 (stereo not shown) [IIb-11] | > 100 | –
12 | O=C(O)CC1COc2cc(OCc3ccc(F)c4c3OCO4)ccc21 (stereo not shown) [IIb-12] | > 100 | –
13 | O=C(O)CC1COc2cc(OCc3c(F)ccc4c3OCO4)ccc21 (stereo not shown) [IIb-13] | > 100 | –
14 | O=C(O)CC1COc2cc(OCc3cc(C(F)(F)F)cc4c3OCO4)ccc21 (stereo not shown) [IIb-14] | 10 to 100 | –
15 | N#Cc1cc(COc2ccc3c(c2)OCC3CC(=O)O)c2c(c1)OCO2 (stereo not shown) [IIb-15] | 10 to 100 | –
16 | O=C(O)CC1COc2cc(OCc3ccc(Br)c4c3OCO4)ccc21 (stereo not shown) [IIb-16] | > 100 | –
17 | O=C(O)CC1COc2cc(OCc3cccc4c3OC(F)(F)O4)ccc21 (stereo not shown) [IIb-17] | 10 to 100 | –
18 | O=C(O)C[C@@H]1COc2cc(OCc3cccc4c3OC(F)(F)O4)ccc21 [IIb-18] | < 10 | Ames assay result [2]: no relevant side effects; EC50 [1, 8]: 7.9 nM; EC50 [1, 9]: < 10 nM; IC50 [3]: > 30000 nM; LD50 at 5 days [4]: > 600 mg/kg; survival rate of the mice after administration [5]: 100%; IC50 [6, 10]: 162000 nM; IC50 ([6]; read-out: BSEP): > 25000 nM
19 | O=C(O)CC1COc2cc(OCc3cccc4c3OCCO4)ccc21 (stereo not shown) [IIb-19] | > 100 | –
20 | CC1(C)Oc2cccc(COc3ccc4c(c3)OCC4CC(=O)O)c2O1 (stereo not shown) [IIb-20] | 10 to 100 | –
21 | O=C(O)CC1COc2cc(OCc3cc(Br)cc4c3OC(F)(F)O4)ccc21 (stereo not shown) [IIb-21] | 10 to 100 | –

Row | SMILES | EC50 [1, 7] [nM] | also measured
22 | CC1(C)Oc2cc(Br)cc(COc3ccc4c(c3)OCC4CC(=O)O)c2O1 (stereo not shown) [IIb-22] | > 100 | –
23 | O=C(O)CC1COc2cc(OCc3cc(Cl)cc4c3OC(F)(F)O4)ccc21 (stereo not shown) [IIb-23] | 10 to 100 | –
24 | O=C(O)CC1COc2cc(OCc3ccc(Cl)c4c3OC(F)(F)O4)ccc21 (stereo not shown) [IIb-24] | > 100 | –
25 | O=C(O)C[C@@H]1COc2cc(OCc3cc(Cl)cc4c3OCO4)ccc21 [IIb-25] | < 10 | Ames assay result [2]: no relevant side effects; EC50 [1, 8]: 9.2 nM; EC50 [1, 9]: < 10 nM; IC50 [3]: > 30000 nM; LD50 at 5 days [4]: > 600 mg/kg; survival rate of the mice after administration [5]: 100%; IC50 [6, 10]: 57700 nM; IC50 ([6]; read-out: BSEP): > 25000 nM
26 | O=C(O)CC1COc2cc(OCc3cccc4c3OC(F)(F)O4)c(Br)cc21 (stereo not shown) [IIb-26] | > 100 | –
27 | O=C(O)CC1COc2c1cc(Br)c(OCc1cccc3c1OC(F)(F)O3)c2Br (stereo not shown) [IIb-27] | > 100 | –
28 | O=C(O)CC1COc2cc(OCc3cccc4c3OC(F)(F)O4)c(Cl)cc21 (stereo not shown) [IIb-28] | > 100 | –
29 | O=C(O)CC1COc2cc(OCc3cccc4c3OC(F)(F)O4)c(F)cc21 (stereo not shown) [IIb-29] | > 100 | –
30 | O=C(O)C(Br)C1COc2cc(OCc3cccc4c3OC(F)(F)O4)ccc21 (stereo not shown) [IIb-30] | > 100 | –
31 | NC(C(=O)O)C1COc2cc(OCc3cccc4c3OC(F)(F)O4)ccc21 (stereo not shown) [IIb-31] | > 100 | –
32 | O=C(O)C(O)C1COc2cc(OCc3cccc4c3OC(F)(F)O4)ccc21 (stereo not shown) [IIb-32] | > 100 | –
33 | O=C(O)C(F)C1COc2cc(OCc3cccc4c3OC(F)(F)O4)ccc21 (stereo not shown) [IIb-33] | 10 to 100 | –
34 | O=C(O)C(F)(F)C1COc2cc(OCc3cccc4c3OC(F)(F)O4)ccc21 (stereo not shown) [IIb-34] | > 100 | –
35 | O=C(O)CC1CCc2cc(OCc3cc(F)cc4c3OCO4)ccc21 (stereo not shown) [IIb-35] | 10 to 100 | –
36 | CC(C)(CC(=O)O)c1ccc(OCc2cc(F)cc3c2OCO3)cc1 [IIb-36] | > 100 | –
37 | O=C(O)CC1(c2ccc(OCc3cc(F)cc4c3OCO4)cc2)OCCO1 [IIb-37] | > 100 | –
38 | Cc1cc(OCCCS(C)(=O)=O)cc(C)c1-c1cc(COc2ccc3c(c2)OC[C@H]3CC(=O)O)c2c(c1)OCO2 [IIb-38] | 10 to 100 | –
39 | O=C(O)C(F)(F)C1COc2cc(OCc3cc(Cl)cc4c3OCO4)ccc21 (stereo not shown) [IIb-39] | > 100 | –
40 | O=C(O)C[C@@H]1COc2cc(OCc3cc(I)cc4c3OCO4)ccc21 [IIb-40] | 10 to 100 | –
41 | CN(C)c1cc(COc2ccc3c(c2)OC[C@H]3CC(=O)O)c2c(c1)OCO2 [IIb-41] | > 100 | –
42 | CN(C)c1ccc2c(c1COc1ccc3c(c1)OC[C@H]3CC(=O)O)OCO2 [IIb-42] | > 100 | –

Row | SMILES | EC50 [1, 7] [nM] | also measured
43 | Nc1cc(COc2ccc3c(c2)OC[C@H]3CC(=O)O)c2c(c1)OCO2 [IIb-44] | > 100 | –
44 | COc1cc(COc2ccc3c(c2)OC[C@H]3CC(=O)O)c2c(c1)OCO2 [IIb-45] | > 100 | –
45 | CC(C)(C)OC(=O)Nc1cc(COc2ccc3c(c2)OC[C@H]3CC(=O)O)c2c(c1)OC(F)(F)O2 [IIb-46] | < 10 | EC50 [1, 9]: < 10 nM
46 | COC(=O)Nc1cc(COc2ccc3c(c2)OC[C@H]3CC(=O)O)c2c(c1)OCO2 [IIb-47] | > 100 | –
47 | O=C(O)C[C@@H]1COc2cc(OCc3cc(NC(=O)OC4CCCC4)cc4c3OCO4)ccc21 [IIb-48] | 10 to 100 | –
48 | CC(C)(C)NC(=O)Nc1cc(COc2ccc3c(c2)OC[C@H]3CC(=O)O)c2c(c1)OCO2 [IIb-49] | > 100 | –
49 | CC(C)(C)C(=O)Nc1cc(COc2ccc3c(c2)OC[C@H]3CC(=O)O)c2c(c1)OCO2 [IIb-50] | > 100 | –
50 | CC(C)S(=O)(=O)Nc1cc(COc2ccc3c(c2)OC[C@H]3CC(=O)O)c2c(c1)OCO2 [IIb-51] | > 100 | –
51 | O=C(O)C[C@@H]1COc2cc(OCc3cc(OC(F)(F)F)cc4c3OCO4)ccc21 [IIb-52] | > 100 | –
52 | O=C(O)C[C@@H]1COc2cc(OCc3cc(C(F)(F)F)cc4c3OCO4)ccc21 [IIb-53] | 10 to 100 | –
53 | O=C(O)C[C@@H]1COc2cc(OCc3cc(C(F)(F)F)cc4c3OC(F)(F)O4)ccc21 [IIb-54] | 10 to 100 | –
54 | O=C(O)C[C@@H]1COc2cc(OCc3cc(F)cc4c3OC(F)(F)O4)ccc21 [IIb-55] | 10 to 100 | –
55 | O=C(O)C[C@@H]1COc2cc(OCc3cc(Cl)cc4c3OC(F)(F)O4)ccc21 [IIb-56] | 10 to 100 | –
56 | O=C(O)C(F)C1COc2cc(OCc3cc(F)cc4c3OCO4)ccc21 (stereo not shown) [IIb-57] | 10 to 100 | –
57 | O=C(O)C(F)C1COc2cc(OCc3cc(Cl)cc4c3OCO4)ccc21 (stereo not shown) [IIb-58] | 10 to 100 | –
58 | CC(C)(C)OC(=O)Nc1cc(COc2ccc3c(c2)OCC3C(F)C(=O)O)c2c(c1)OCO2 (stereo not shown) [IIb-59] | 10 to 100 | –
59 | O=C(O)CC1CCc2cc(OCc3cccc4c3OC(F)(F)O4)ccc21 (stereo not shown) [IIb-61] | 10 to 100 | –
60 | CC#CC(CC(=O)O)c1ccc(OCc2cccc3c2OC(F)(F)O3)cc1 (stereo not shown) [IIb-62] | 10 to 100 | –
61 | CC(C)(C)OC(=O)Nc1cc(COc2ccc3c(c2)CCC3CC(=O)O)c2c(c1)OC(F)(F)O2 (stereo not shown) [IIb-63] | 10 to 100 | –
62 | CC#CC(CC(=O)O)c1ccc(OCc2cc(NC(=O)OC(C)(C)C)cc3c2OC(F)(F)O3)cc1 (stereo not shown) [IIb-64] | 10 to 100 | –
